Laboratory results from the NIST ThermoML archive (doi:10.1016/j.fluid.2014.10.037).
Values joined by “and” are separate entries in the source; they are usually repeats but may differ in a detail not shown here. Equal entries are not always repeated.

Conditions: Liquid, Closed cell (Static) method

O=Cc1ccco1 [2-furaldehyde]
Conditions	vapor or sublimation pressure [kPa]
353.2 K	5.9
373.4 K	13.6
408 K	46.3

CC(C)O [propan-2-ol]
Conditions	vapor or sublimation pressure [kPa]
353.3 K	93.8
373.5 K	200.1
408.3 K	593.8

Cc1ccco1 [2-methylfuran]
Conditions	vapor or sublimation pressure
353.8 K	161.8 kPa and 162.6 kPa
357.5 K	181.5 kPa and 181.7 kPa
358.3 K	186.5 kPa
362.4 K	210.5 kPa
362.5 K	211.1 kPa
363.1 K	214.9 kPa
367.2 K	242.1 kPa
367.4 K	242.7 kPa
367.9 K	246 kPa
373.4 K	285.3 kPa
373.6 K	286.4 kPa
373.9 K	288.4 kPa
398.2 K	527.6 kPa
398.4 K	530.3 kPa
398.8 K	533.8 kPa
403 K	587.6 kPa
403.2 K	591.7 kPa
403.3 K	592.3 kPa
408.4 K	667.2 kPa
408.6 K	670.2 kPa
409 K	676.7 kPa

OCc1ccco1 [2-hydroxymethylfuran]
Conditions	vapor or sublimation pressure [kPa]
353.3 K	2.6
373 K	7
407.9 K	30.1

c1ccoc1 [furan]
Conditions	vapor or sublimation pressure [kPa]
353.4 K	455.1
373.1 K	735.6
407.9 K	1513.3
